Laboratory results taken from the supplement of paper PMC10627819.

Experiments:
Test in all cases: fitness (endpoint OD595 vs no drug) (fraction); higher = more growth
S. pneumoniae D39V = test system: S. pneumoniae D39V
Outline: (§1)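 Each well of a 384-well plate received 30 µl of culture at OD595 0.01, or 55 µl for S. pneumoniae. TSB, LB Lennox or CY served as media at 37 °C. OD595 was taken every 30 min for 14 h and corrected by subtracting the first reading. Fitness is the optical density at stationary-phase entry divided by the robust mean of no-drug controls, capped at 1.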

B. subtilis 168 = test system: B. subtilis 168
Outline: as §1

S. aureus Newman = conditions: one replicate
Outline: as §1

O=C(O)[C@H]1/C(=C/CO)O[C@@H]2CC(=O)N21 [Clavulanic acid] + Cc1cc(NS(=O)(=O)c2ccc(N)cc2)no1 [Sulfamethoxazol]
fitness
Conditions	partner 1 µg/mL	partner 2 µg/mL	partner 4 µg/mL
B. subtilis 168, first compound 1.5 µg/mL	0.853	0.883	0.93
B. subtilis 168, first compound 3 µg/mL	0.816	0.839	0.943
B. subtilis 168, first compound 6 µg/mL	0.704	0.733	0.798
S. aureus Newman, first compound 0.03125 µg/mL	0.994	0.974	0.983
S. aureus Newman, first compound 0.0625 µg/mL	≥ 1	≥ 1	≥ 1
S. aureus Newman, first compound 0.125 µg/mL	0.951	0.929	0.929
S. pneumoniae D39V, first compound 0.5 µg/mL	0.985	0.982	0.949
S. pneumoniae D39V, first compound 1 µg/mL	0.914	0.93	0.856
S. pneumoniae D39V, first compound 2 µg/mL	0.836	0.904	0.786

B. subtilis 168, partner 0.5 µg/mL, one replicate
Conditions	fitness
first compound 1.5 µg/mL	0.974
first compound 3 µg/mL	0.903
first compound 6 µg/mL	0.952

O=C(O)[C@H]1/C(=C/CO)O[C@@H]2CC(=O)N21 [Clavulanic acid] + Cc1ncc([N+](=O)[O-])n1CCO [Metronidazole]
fitness
Conditions	partner 0.625 µg/mL	partner 1.073 µg/mL	partner 1.25 µg/mL	partner 2.145 µg/mL	partner 2.5 µg/mL	partner 4.29 µg/mL	partner 5 µg/mL
B. subtilis 168, first compound 1.5 µg/mL	0.93	–	0.97	–	0.976	–	–
B. subtilis 168, first compound 3 µg/mL	0.909	–	0.89	–	0.886	–	–
B. subtilis 168, first compound 6 µg/mL	0.794	–	0.762	–	0.772	–	–
S. aureus Newman, first compound 0.03125 µg/mL	0.976	–	0.96	–	0.996	–	–
S. aureus Newman, first compound 0.0625 µg/mL	0.94	–	≥ 1	–	≥ 1	–	–
S. aureus Newman, first compound 0.125 µg/mL	0.85	–	0.891	–	0.852	–	–
S. pneumoniae D39V, first compound 0.5 µg/mL	–	0.946	≥ 1	0.946	≥ 1	0.858	≥ 1
S. pneumoniae D39V, first compound 1 µg/mL	–	0.931	0.957	0.926	0.971	0.89	0.959
S. pneumoniae D39V, first compound 2 µg/mL	–	0.839	0.801	0.779	0.828	0.829	0.805

O=C(O)[C@H]1/C(=C/CO)O[C@@H]2CC(=O)N21 [Clavulanic acid] + Cc1onc(-c2ccccc2)c1C(=O)N[C@@H]1C(=O)N2[C@@H]1SC(C)(C)[C@@H]2C(=O)O [Oxacillin]
Conditions	fitness
B. subtilis 168, first compound 1.5 µg/mL, partner 0.002 µg/mL	0.917
B. subtilis 168, first compound 1.5 µg/mL, partner 0.004 µg/mL	0.956
B. subtilis 168, first compound 1.5 µg/mL, partner 0.008 µg/mL	0.962
B. subtilis 168, first compound 3 µg/mL, partner 0.002 µg/mL	0.901
B. subtilis 168, first compound 3 µg/mL, partner 0.004 µg/mL	0.899
B. subtilis 168, first compound 3 µg/mL, partner 0.008 µg/mL	0.866
B. subtilis 168, first compound 6 µg/mL, partner 0.002 µg/mL	0.827
B. subtilis 168, first compound 6 µg/mL, partner 0.004 µg/mL	0.788
B. subtilis 168, first compound 6 µg/mL, partner 0.008 µg/mL	0.762
S. aureus Newman, first compound 0.03125 µg/mL, partner 0.0156 µg/mL	0.861
S. aureus Newman, first compound 0.03125 µg/mL, partner 0.0312 µg/mL	0.801
S. aureus Newman, first compound 0.03125 µg/mL, partner 0.0625 µg/mL	0.628
S. aureus Newman, first compound 0.0625 µg/mL, partner 0.0156 µg/mL	0.785
S. aureus Newman, first compound 0.0625 µg/mL, partner 0.0312 µg/mL	0.784
S. aureus Newman, first compound 0.0625 µg/mL, partner 0.0625 µg/mL	0.564
S. aureus Newman, first compound 0.125 µg/mL, partner 0.0156 µg/mL	0.749
S. aureus Newman, first compound 0.125 µg/mL, partner 0.0312 µg/mL	0.697
S. aureus Newman, first compound 0.125 µg/mL, partner 0.0625 µg/mL	0.584
S. pneumoniae D39V, first compound 0.5 µg/mL, partner 0.005 µg/mL	0.994
S. pneumoniae D39V, first compound 0.5 µg/mL, partner 0.01 µg/mL	0.953
S. pneumoniae D39V, first compound 0.5 µg/mL, partner 0.02 µg/mL	0.943
S. pneumoniae D39V, first compound 0.5 µg/mL, partner 0.04 µg/mL	0.401
S. pneumoniae D39V, first compound 1 µg/mL, partner 0.005 µg/mL	0.952
S. pneumoniae D39V, first compound 1 µg/mL, partner 0.01 µg/mL	0.888
S. pneumoniae D39V, first compound 1 µg/mL, partner 0.02 µg/mL	0.837
S. pneumoniae D39V, first compound 1 µg/mL, partner 0.04 µg/mL	0.228
S. pneumoniae D39V, first compound 2 µg/mL, partner 0.005 µg/mL	0.846
S. pneumoniae D39V, first compound 2 µg/mL, partner 0.01 µg/mL	0.749
S. pneumoniae D39V, first compound 2 µg/mL, partner 0.04 µg/mL	0.0623

fitness, B. subtilis 168, one replicate
Conditions	partner 0.0078 µg/mL	partner 0.0155 µg/mL	partner 0.031 µg/mL	partner 0.075 µg/mL	partner 0.15 µg/mL	partner 0.3 µg/mL
first compound 1.5 µg/mL	0.929	0.903	0.926	0.188	0.058	0.0448
first compound 3 µg/mL	0.958	0.937	0.973	0.0579	0.0634	0.0505
first compound 6 µg/mL	0.89	0.861	0.806	0.061	0.058	0.0518
